Reference: PMC12856912, “Structure-Guided Semisynthesis of Blasticidin S–Amicetin Chimeras as Selective Ribosome Inhibitors” (Journal of the American Chemical Society, 2026)
Values after ≈ are worked out from the molar mass of the structure shown.

What was measured:
S. aureus ATCC 6538P = assay: Antibacterial MIC assay, serial dilution; type: cell-based, Staphylococcus aureus; conditions: for Selectivity index (CC50/MIC) S. aureus 6538P: CC50 Vero cells / MIC; for MIC: Staphylococcus aureus, ATCC 6538P / ATCC 6539P, read-out: MIC S. aureus ATCC 6539P
Experimental: (§1) Media and solutions were autoclaved or sterile filtered prior to use and mani pulations were carri ed out in a laminar flow hood. Antibacterial t esting was performed in polypropylene 96-well flat bottom plates. The minimal inhibitory concentration of blasticidin S (1) hydrochloride, methyl ester (3) trihydrochloride, P10 (2) tri-T FA , phenet hyl amide (4) tri -T FA , an d blastimidines M 19– 22, A, 29–32, P 37–40, and C 43–46 (salt forms as described in the te xt) were assessed against Staphylococcus aureus ΔNorA, S. aureus ATCC 6538P, methicillin-resistant S. aureus (MRSA) ATCC 43300, Enterococcus faecalis ATCC 29212, vancomycin- resistant Enterococcus, Klebsiella pneumoniae ATCC 29665, Pseudomonas aeruginosa,and Acinetobacter baumannii ATCC 17978 using serial dilutions. Doxycycline (Gold Bio) as a positive control and the vehicle as a negative control. Stock solutions of each compound were prepared at 2.56 mg/mL in 50% DMSO/water and serially diluted in 50% DMSO/water to create master plates. From the master plates, 10 μ L o f each dilution was applied to test plates using a Bravo automated liquid transfer system (Agilent).
(§2) Bacteria previously grown overnight (37 °C, 120–200 RPM), in LB broth were diluted to an OD600 of 0.05 in cation-adjusted Mueller-Hinton broth (CAMHB), grown to an OD600 of ~0.5, and diluted to an OD600 of 0.004 in CAMHB . These diluted cultures were applied to the test plates (190 μL per test well) resulting in final concentrations of the test compounds of 128–1 μg/ m L.
(§3) Growth controls (wells with inoculated media but no vehicle or test compounds) were included to assess any potential toxicity from the vehicle. Th e plates were in cubated at 37 °C for 16–18 h, except fo r VRE and E. faecalis, which w ere in cub ated at 37 °C fo r 24 h. Inh ibition was determined by measuring the optical density at 600 nm (OD60 0) with a Cytation 3 pl ate read er (BioTek). The optical density measurem ents were no rmalized to the positive and negative controls and the vehicle and growth controls were compared and found to b e indistinguishable, indicating no toxicity from […]
(§4) the vehicle used. The MIC was the lowest concentration that inhibited >90% of growth. Two biological replicates were performed in duplicate. MIC values are reported as a range from […]

MRSA ATCC 43300 = assay: Antibacterial MIC assay, serial dilution; type: cell-based, Staphylococcus aureus; conditions: for Selectivity index (CC50/MIC) MRSA 43300: CC50 Vero cells / MIC; for MIC: Staphylococcus aureus, read-out: MIC MRSA ATCC 43300
Experimental: as §1, §2, §3, §4

S. aureus ΔNorA = assay: Antibacterial MIC assay, serial dilution; type: cell-based, Staphylococcus aureus; conditions: for Selectivity index (CC50/MIC) S. aureus ΔNorA: CC50 Vero cells / MIC; for MIC: Staphylococcus aureus, read-out: MIC S. aureus ∆NorA
Experimental: as §1, §2, §3, §4

[1] = test system: Methicillin resistant S. aureus (MRSA) USA300; assay: Antibacterial MIC assay, serial dilution; type: cell-based, Staphylococcus aureus; conditions: for Selectivity index (CC50/MIC) MRSA USA300: CC50 Vero cells / MIC; for MIC: Staphylococcus aureus, read-out: MIC Methicillin resistant S. aureus (MRSA) USA300
[2] = test system: Escherichia coli BAA-2452; assay: Antibacterial MIC assay, serial dilution; type: cell-based; conditions: BAA2452, read-out: MIC Escherichia coli BAA-2452
[3] = Cytotoxicity assay (MTS/PMS); type: cell-based; conditions: monkey, Vero cells (monkey kidney epithelial cells); 24 h treatment, MTS/PMS, average of three biological replicates; read-out: CC50 against Vero cells
Experimental: The potential cytotoxic eff ect of the test compounds was investigated using Vero cells (monkey kidney epitheli al cells) following est ablished protocols.3 Briefly, Vero cells were plated into 96-well plates supplemented with Dulbecco's Modified Eagle Medium (DMEM) containing 10% fetal bovine serum (FBS). The cells were placed in a humidified 37 °C environment for incubation with 5% CO₂ for 24 h to allow proper adherence and growth. Following the incubation period, the culture medium was replaced with fresh DMEM containing serial dilutions of the test compounds, while the v ehicle alon e w as used as a negative control. The treated cells were incubated for an additional 24 h. To assess cell viability, the MTS/PMS reagent was added to each well and incubat ed for 4 h. A microplate reader (S ynergy H1, BioTek, USA) was used to m easure absorbance at 490 nm. Al l experiments wer e cond ucted usingthree biologi cal replicates .
Ta b l e S2. CC50 valuesa (µg/mL) against Vero cells […]
aValues at which the cell viability (normalized to vehicle control) was 50%. […]

[4] = test system: Vancomycin resistant Enterococcus faecium NR-31909 (VRE); assay: Antibacterial MIC assay, serial dilution; type: cell-based; conditions: for MIC: Enterococcus faecium, VRE, 24 h, read-out: MIC Vancomycin resistant Enterococcus faecium NR-31909 (VRE)
Experimental: as §1, §2, §3, §4

[5] = test system: Enterococcus faecalis ATCC 29212; assay: Antibacterial MIC assay, serial dilution; type: cell-based; conditions: for Selectivity index (CC50/MIC) E. faecalis 29212: CC50 Vero cells / MIC; for MIC: Enterococcus faecalis, ATCC 29112 / ATCC 29212, 24 h, read-out: MIC E. faecalis ATCC 29112
Experimental: as §1, §2, §3, §4

[6] = test system: Klebsiella pneumoniae ATCC 29665; assay: Antibacterial MIC assay, serial dilution; type: cell-based; conditions: Klebsiella pneumoniae, ATCC29665; range from biological replicates; read-out: MIC K. pneumoniae ATCC-29665
Experimental: as §1, §2, §3, §4

[7] = test system: Acinetobacter baumannii ATCC 17978; assay: Antibacterial MIC assay, serial dilution; type: cell-based; conditions: ATCC17978, range from biological replicates
Experimental: as §1, §2, §3, §4

Pseudomonas aeruginosa = assay: Antibacterial MIC assay, serial dilution; type: cell-based; conditions: for Selectivity index (CC50/MIC) P. aeruginosa: CC50 Vero cells / MIC; for MIC: Pseudomonas aeruginosa, range from biological replicates, read-out: MIC P. aeruginosa
Experimental: as §1, §2, §3, §4

[8] = test system: Methicillin resistant Staphylococcus epidermidis (MRSE) ATCC 35984 NRS101; assay: Antibacterial MIC assay, serial dilution; type: cell-based; conditions: for Selectivity index (CC50/MIC) MRSE 35984: CC50 Vero cells / MIC; for MIC: Staphylococcus epidermidis, read-out: MIC Methicillin resistant Staphylococcus epidermidis (MRSE) ATCC 35984 NRS101
[9] = test system: Vancomycin resistant E. faecalis NR-31972 (VRE); assay: Antibacterial MIC assay, serial dilution; type: cell-based, Enterococcus faecalis; conditions: for Selectivity index (CC50/MIC) VRE NR-31972: CC50 Vero cells / MIC; for MIC: Enterococcus faecalis, VRE, 24 h, read-out: MIC Vancomycin resistant E. faecalis NR-31972 (VRE)
Experimental: as §1, §2, §3, §4

MRSA USA-300 = type: cell-based, Staphylococcus aureus; conditions: for bacteriostatic or bactericidal effect in time-kill assay: 5× MIC and 10× MIC
Experimental: MRSA USA-300 was grown overnight in cation- adjusted Muell er-Hinton broth (CAMHB), then subcultured into fresh CAMHB and incubated aerobi cally at 37°C until reaching the logarithmic phase, corresponding to an optical density (OD₆₀₀) of 0.2. The bacterial cultures were further diluted to adjust to a final concentration of 5 × 10⁵ CFU/mL in CAMHB. P3, P5, vancomycin and linezolid, were added at concentrations of 5× and 10× MIC. A DMSO-treated […]
culture serv ed as an untreated control. The cultures were aerobically maintai ned at 37°C in shaking incubator. At specifi c sampling times, aliquots were collected, resuspended in phosphate-buffered saline (PBS) and distributed to three replicates on tryptic soy agar (TSA). After a 24-hour incubation period at 37°C, the number of colony- forming units (CFUs) was evaluated.
F i g u re S 1. Time kill results against MRSA USA 300 at 5X and 10X MIC. Compound P3 ( 38) is shown as red squares, compound P5( 40) is shown as green tri angles. Vancomycin (inverted purple triangle) is used as a b act ericidal control and linezolid (orange diamond) as a bacteriostatic control with DMSO (blue circles ) as a neg ative control. […]

SMILES	Selectivity index (CC50/MIC) S. aureus 6538P (S. aureus ATCC 6538P)	MIC (S. aureus ATCC 6538P)	Selectivity index (CC50/MIC) MRSA 43300 (MRSA ATCC 43300)	MIC (MRSA ATCC 43300)	Selectivity index (CC50/MIC) S. aureus ΔNorA (S. aureus ΔNorA)	MIC (S. aureus ΔNorA)	Selectivity index (CC50/MIC) MRSA USA300 [1]	MIC [1]	MIC [2]	CC50 at 24 h [3]	MIC [4]	Selectivity index (CC50/MIC) E. faecalis 29212 [5]	MIC [5]	MIC [6]	MIC [7]	Selectivity index (CC50/MIC) P. aeruginosa (Pseudomonas aeruginosa)	MIC (Pseudomonas aeruginosa)	Selectivity index (CC50/MIC) MRSE 35984 [8]	MIC [8]	Selectivity index (CC50/MIC) VRE NR-31972 [9]	other results
CN(CC[C@H](N)CC(=O)N[C@H]1C=C[C@H](n2ccc(NC(=O)c3ccc(N)cc3)nc2=O)O[C@@H]1C(=O)NCCc1ccccc1)C(=N)N [Blastimidine P2]	>12	16 to 32 mg/L (≈ 24.8 to 49.6 µM)	>4.0	64 mg/L (≈ 99.3 µM)	>32	8 mg/L (≈ 12.4 µM)	>8.0	32 mg/L (≈ 49.6 µM)	128 mg/L (≈ 199 µM)	> 256 mg/L	128 mg/L (≈ 199 µM)	>32	8 mg/L (≈ 12.4 µM)	> 128 mg/L	> 128 mg/L	>2.0	128 mg/L (≈ 199 µM)	>16	16 mg/L (≈ 24.8 µM)	>16	Selectivity index (CC50/MIC) VRE NR-31909 ([4]; CC50 Vero cells / MIC): >2.0; MIC [9]: 16 mg/L (≈ 24.8 µM)
CC(=O)Nc1ccc(C(=O)Nc2ccn([C@H]3C=C[C@H](NC(=O)C[C@@H](N)CCN(C)C(=N)N)[C@@H](C(=O)NCCc4ccccc4)O3)c(=O)n2)cc1 [Blastimidine P4]	>8.0	32 mg/L (≈ 46.6 µM)	>2.0	128 mg/L (≈ 186 µM)	>24	8 to 16 mg/L (≈ 11.6 to 23.3 µM)	>4.0	64 mg/L (≈ 93.2 µM)	> 128 mg/L	> 256 mg/L	> 128 mg/L	>8.0	32 mg/L (≈ 46.6 µM)	> 128 mg/L	> 128 mg/L	>2.0	128 mg/L (≈ 186 µM)	>16	16 mg/L (≈ 23.3 µM)	>8.0	MIC [9]: 32 mg/L (≈ 46.6 µM)
CC(=O)NC[C@H]1CN(c2ccc(N3CCOCC3)c(F)c2)C(=O)O1 [linezolid, reference compound]	–	–	–	–	–	–	–	–	–	–	–	–	–	–	–	–	–	–	–	–	bacteriostatic or bactericidal effect in time-kill assay (MRSA USA-300): bacteriostatic activity
CN[C@H](CC(C)C)C(=O)N[C@H]1C(=O)N[C@@H](CC(N)=O)C(=O)N[C@H]2C(=O)N[C@H]3C(=O)N[C@H](C(=O)N[C@H](C(=O)O)c4cc(O)cc(O)c4-c4cc3ccc4O)[C@H](O)c3ccc(c(Cl)c3)Oc3cc2cc(c3O[C@@H]2O[C@H](CO)[C@@H](O)[C@H](O)[C@H]2O[C@H]2C[C@](C)(N)[C@H](O)[C@H](C)O2)Oc2ccc(cc2Cl)[C@H]1O [vancomycin, reference compound]	–	–	–	–	–	–	–	–	–	–	–	–	–	–	–	–	–	–	–	–	bacteriostatic or bactericidal effect in time-kill assay (MRSA USA-300): bactericidal activity; time to bactericidal activity (MRSA USA-300; time-kill assay): ≤ 8 h
